Test results from patent publication US20260061084A1, “FIBROBLAST ACTIVATION PROTEIN (FAP) INHIBITORS, FAP CONJUGATES, AND DIAGNOSTIC AND THERAPEUTIC USES THEREOF” (Nuclidium AG, priority 2022, published 2026).

Assays:
[1] = test system: HT-1080.hFAP tumor-bearing mice; experiment: Biodistribution studies in xenografted mice; format: in vivo; conditions: for Biodistribution: Heart / Biodistribution: Intestine / Biodistribution: Liver / Biodistribution: Lung / Biodistribution: Muscle / Biodistribution: Spleen / Biodistribution: Stomach / Biodistribution: Adrenal / Biodistribution: Blood / Biodistribution: Kidneys / Biodistribution: Pancreas / Biodistribution: HT-1080.wt / Biodistribution: HT-1080.hFAP: i.v.; for Biodistribution: HT-1080.wt: FAP-negative tumor; for Biodistribution: HT-1080.hFAP: FAP-positive tumor; for Accumulation in FAP-positive (HT-1080.hFAP) tumor and murine-FAP-positive tissues, such as the bone marrow (bones): xenografted mice, 1 h and 4 h p.i.
Procedure: The tumors were allowed to grow to an average volume of 100-200 mm^3.
Biodistribution Studies: The xenografted mice were randomized (n=5 per group) and injected intravenously via the tail vein with the ^61Cu-labeled radioligands (100 μL, […], 0.8-1MBq). Mice were euthanized 1 h and 4 h p.i. by CO2 asphyxiation. Organs of interest and blood were collected, rinsed of excess blood, blotted dry, weighed, and counted in a […]. The samples were counted against a suitably diluted aliquot of the injected solution as the standard and the results are expressed as the percentage of the injected activity per gram of tissue (% I.A./g) ±SD.

[2] = test system: HT-1080.hFAP (FAP-positive) cells; experiment: In vitro cellular uptake (cell surface-bound and internalized fractions); format: cell-based, human; conditions: 37° C., specific uptake (HT-1080.wt subtracted)
Procedure: The cellular uptake was studied in vitro using intact cells seeded in 6-well plates overnight. […] At each investigated time point, the medium containing the unbound (free) radiotracer was removed, followed by two washing steps with ice-cold phosphate-buffered saline. The cells were then treated 2×5 min with ice-cold glycine solution (0.05 M, pH 2.8) to detach the cell surface-bound radiotracer (acid released). Afterwards, the cells containing the internalized radiotracer were detached with 1 M NaOH at 37° C. and collected for measurement. The amount of specific cell surface-bound and internalized radiotracer is expressed as percentage of the total applied activity, after subtracting the non-specific values.
The cells were then preconditioned in 360 μL of assay medium (MEM medium without supplements) at 37° C. for 60 min. 40 μL of a 2 nM solution of ^61Cu-labeled radioligand was added and the cells were incubated at 37° C. The cellular uptake was interrupted at different time points (15 min, 1 hour and 4 hours), by washing twice with ice-cold PBS. Cell surface-bound radioligand was obtained by washing cells twice with ice-cold glycine buffer (pH 2.8), followed by a collection of the internalized fraction with 1 M NaOH. The activity in each fraction was measured in a […] (Cobra II).

[3] = test system: Mice bearing FAP-positive and FAP-negative xenografts; experiment: PET/CT imaging: remaining PET activity in the mouse body; format: in vivo
Procedure: The mice were euthanized by CO2 at 4 hours p.i., and static PET scans were acquired for 30 min.
PET/CT images were acquired using β-CUBE PET scanner system (Molecubes, Gent, Belgium), with a spatial resolution of 0.85 mm and an axial field-of-view of 13 cm. Dynamic PET scans were acquired for 60 min. All PET scans were decay corrected and reconstructed into a 192×192×384 matrix by an ordered subsets maximization expectation (OSEM) algorithm using 30 iterations, a voxel size of 400×400×400 μm a 15 min per frame. CT data was used to apply attenuation correction on the PET data. The CT was imaged supine, head first, using the NanoSPECT/CTTM scanner (Bioscan Inc.). Topograms and helical CT scans of the whole mouse were first acquired using the following parameters: X-ray tube current: 177 μA, X-ray tube voltage 45 kVp, 90 seconds and 180 frames per rotation, pitch 1. CT images were reconstructed using CTReco (version r1.146), with a standard filtered back projection algorithm (exact cone beam) and post-filtered (RamLak, 100% frequency cut-off), resulting in a pixel size of 0.2 mm. Co-registered PET/CT images were visualized using maximum intensity projection (MIP) with VivoQuant software (version 4.0).

| SMILES | Biodistribution: Intestine ([1]; 1 hour p.i.) [% I.A./g] | Biodistribution: Liver ([1]; 1 hour p.i.) [% I.A./g] | Biodistribution: Spleen ([1]; 1 hour p.i.) [% I.A./g] | Biodistribution: Stomach ([1]; 1 hour p.i.) [% I.A./g] | Biodistribution: Heart ([1]; 4 hours p.i.) [% I.A./g] | Biodistribution: Intestine ([1]; 4 hours p.i.) [% I.A./g] | Biodistribution: Liver ([1]; 4 hours p.i.) [% I.A./g] | Biodistribution: Lung ([1]; 4 hours p.i.) [% I.A./g] | Biodistribution: Spleen ([1]; 4 hours p.i.) [% I.A./g] | Biodistribution: Stomach ([1]; 4 hours p.i.) [% I.A./g] | Biodistribution: HT-1080.wt ([1]; 1 hour p.i.) [% I.A./g] | Biodistribution: HT-1080.wt ([1]; 4 hours p.i.) [% I.A./g] | Biodistribution: HT-1080.hFAP ([1]; 1 hour p.i.) [% I.A./g] | Biodistribution: HT-1080.hFAP ([1]; 4 hours p.i.) [% I.A./g] | Cell surface fraction ([2]; 15 min) | Internalized fraction ([2]; 30 min) | Cell surface fraction ([2]; 60 min) | Internalized fraction ([2]; 60 min) | Cell surface fraction ([2]; 240 min) | Internalized fraction ([2]; 240 min) | other results |
| --- | --- | --- | --- | --- | --- | --- | --- | --- | --- | --- | --- | --- | --- | --- | --- | --- | --- | --- | --- | --- | --- |
| CN(C(=O)CCC(=O)NCCNC(=O)CCC(C(=O)O)N1CCN(CC(=O)[O-])CCN(CC(=O)[O-])CC1)c1ccc2nccc(C(=O)NCC(=O)N3CC(F)(F)CC3C#N)c2c1.[61Cu+2] (stereo not drawn) [[^61Cu]Cu-NODAGA-2] | 0.5 ± 0.1 | 0.6 ± 0.1 | 0.4 ± 0.1 | 0.6 ± 0.1 | 0.3 ± 0.0 | 0.3 ± 0.1 | 0.6 ± 0.1 | 0.4 ± 0.0 | 0.2 ± 0.0 | 0.3 ± 0.1 | 1.4 ± 0.2 | 0.9 ± 0.1 | 3.5 ± 1.0 | 4.0 ± 0.6 | 1.2 ± 0.6 % of the applied activity | 20.7 ± 5.5 % of the applied activity | 1.4 ± 0.5 % of the applied activity | 27.0 ± 6.9 % of the applied activity | 1.3 ± 0.5 % of the applied activity | 28.3 ± 7.5 % of the applied activity | Biodistribution: Heart ([1]; 1 hour p.i.): 0.6 ± 0.1 % I.A./g; Biodistribution: Lung ([1]; 1 hour p.i.): 0.8 ± 0.1 % I.A./g; Biodistribution: Muscle ([1]; 1 hour p.i.): 0.9 ± 0.1 % I.A./g; Biodistribution: Adrenal ([1]; 4 hours p.i.): 0.3 ± 0.1 % I.A./g; Biodistribution: Blood ([1]; 4 hours p.i.): 0.5 ± 0.1 % I.A./g; Biodistribution: Kidneys ([1]; 4 hours p.i.): 1.0 ± 0.1 % I.A./g; Biodistribution: Muscle ([1]; 4 hours p.i.): 0.4 ± 0.1 % I.A./g; Biodistribution: Pancreas ([1]; 4 hours p.i.): 0.5 ± 0.0 % I.A./g; Accumulation in FAP-positive (HT-1080.hFAP) tumor and murine-FAP-positive tissues, such as the bone marrow (bones) [1]: high accumulation |
| N#CC1CC(F)(F)CN1C(=O)CNC(=O)c1ccnc2ccc(NC(=O)CCC(=O)N3CCN(C(=O)CCC(C(=O)O)N4CCN(CC(=O)[O-])CCN(CC(=O)[O-])CC4)CC3)cc12.[61Cu+2] (stereo not drawn) [[^61Cu]Cu-NODAGA-3] | 0.8 ± 0.2 | 0.9 ± 0.1 | 0.5 ± 0.1 | 0.8 ± 0.1 | 0.5 ± 0.0 | 0.4 ± 0.1 | 0.7 ± 0.1 | 0.7 ± 0.1 | 0.3 ± 0.0 | 0.5 ± 0.0 | 4.0 ± 2.2 | 1.8 ± 0.3 | 7.9 ± 0.9 | 6.4 ± 2.0 | 0.9 ± 0.3 % of the applied activity | 26.6 ± 4.9 % of the applied activity | 1.2 ± 0.4 % of the applied activity | 36.9 ± 5.3 % of the applied activity | 1.4 ± 0.4 % of the applied activity | 39.4 ± 4.8 % of the applied activity | Biodistribution: Heart ([1]; 1 hour p.i.): 0.7 ± 0.1 % I.A./g; Biodistribution: Blood ([1]; 4 hours p.i.): 0.9 ± 0.0 % I.A./g; Biodistribution: Kidneys ([1]; 4 hours p.i.): 1.0 ± 0.2 % I.A./g; Biodistribution: Pancreas ([1]; 4 hours p.i.): 0.9 ± 0.0 % I.A./g; Accumulation in FAP-positive (HT-1080.hFAP) tumor and murine-FAP-positive tissues, such as the bone marrow (bones) [1]: high accumulation |
| CN(CCCN1CCN(C(=O)CCC(C(=O)O)N2CCN(CC(=O)[O-])CCN(CC(=O)[O-])CC2)CC1)c1ccc2nccc(C(=O)NCC(=O)N3CC(F)(F)CC3C#N)c2c1.[61Cu+2] (stereo not drawn) [[^61Cu]Cu-NODAGA-FAPI-46, reference compound] | 1.0 ± 0.4 | 0.9 ± 0.0 | 0.7 ± 0.1 | 1.0 ± 0.1 | 0.7 ± 0.1 | 0.6 ± 0.2 | 0.8 ± 0.2 | 1.0 ± 0.1 | 0.5 ± 0.1 | 0.6 ± 0.1 | 3.1 ± 0.0 | 2.5 ± 0.2 | 8.4 ± 1.4 | 7.7 ± 0.4 | 0.9 ± 0.3 % of the applied activity | 24.3 ± 2.3 % of the applied activity | 1.2 ± 0.4 % of the applied activity | 36.1 ± 1.6 % of the applied activity | 1.7 ± 0.4 % of the applied activity | 50.0 ± 6.0 % of the applied activity | Retention in the body (remaining PET activity 4 h p.i.), in words [3]: highest retention in the body; Biodistribution: Pancreas ([1]; 1 hour p.i.): 2.0 ± 0.2 % I.A./g; Biodistribution: Adrenal ([1]; 4 hours p.i.): 2.0 ± 0.2 % I.A./g; Biodistribution: Kidneys ([1]; 4 hours p.i.): 1.0 ± 0.1 % I.A./g |
| N#CC1CC(F)(F)CN1C(=O)CNC(=O)c1ccnc2ccc(NC(=O)CCC(=O)NCCNC(=O)CCC(C(=O)O)N3CCN(CC(=O)[O-])CCN(CC(=O)[O-])CC3)cc12.[61Cu+2] (stereo not drawn) [[^61Cu]Cu-NODAGA-1] |  |  | 0.8 ± 0.1 |  | 0.7 ± 0.1 |  | 1.0 ± 0.2 | 0.8 ± 0.2 | 0.5 ± 0.1 | 0.7 ± 0.1 | 4.5 ± 0.6 | 2.1 ± 0.5 | 12.6 ± 1.5 | 7.1 ± 3.0 | 1.2 ± 0.3 % of the applied activity | 26.2 ± 3.5 % of the applied activity | 1.4 ± 0.3 % of the applied activity | 29.9 ± 1.8 % of the applied activity | 1.3 ± 0.2 % of the applied activity | 29.3 ± 1.8 % of the applied activity | Retention in the body (remaining PET activity 4 h p.i.), in words [3]: highest retention in the body; Accumulation in FAP-positive (HT-1080.hFAP) tumor and murine-FAP-positive tissues, such as the bone marrow (bones) [1]: high accumulation |
